US20080139611A1, “METHODS OF USING 4-PHENYLAMINOQUINOLINES AS TOPICAL NON-STEROIDAL ANTIINFLAMMATORY COMPOUNDS” (priority 2006, published 2008)

Legend:
PMA-induced ear swelling = experiment: PMA-induced mouse ear swelling (topical anti-inflammatory activity); type: in vivo, CD-1 (Crl.) derived male mice; conditions: topical 3 mg/ear applied 30 min before and 15 min after PMA, measured 6 hours after PMA, >=30% considered significant
Experimental: A compound can be tested for topical anti-inflammatory activity by measuring the degree of inhibition of edema produced in a mouse ear that has been irritated by the application of a solution of a phorbol ester. [2-(7-Trifluoromethyl-quinolin-4-ylamino)-phenyl]-acetic acid sodium salt was tested for its anti-inflammatory activity as follows: Groups of 6 CD-1 (Crl.) derived male mice weighing 24±2 g were used. Phorbol 12-Myristate 13-Acetate (PMA 4 μg in 20 μl of Acetone) was applied topically to the anterior and posterior surfaces of the right ear to each animal. Vehicle (Ethanol:Acetone/1:1, 20 μl/ear) and [2-(7-Trifluoromethyl-quinolin-4-ylamino)-phenyl]-acetic acid sodium salt at 3 mg/ear were each applied 30 minutes before and 15 minutes after Phorbol 12-Myristate 13-Acetate challenge. Indomethacin (3 mg in 20 μl/ear of acetone:ethanol/1:1) as the positive control was similarly applied at the same timing. Ear swelling was then measured by a Dyer model micrometer gauge at 6 hours after Phorbol 12 Myristate 13-Acetate application as an index of inflammation. Percent inhibition was calculated according to the formula: ([Ic−It]/Ic)×100%, where Ic and It refer to increase of ear thickness (mm) in control and treated mice, respectively. Inhibition of 30 percent or more (≧30%) in ear swelling is considered significant anti-inflammatory activity.
[2-(7-Trifluoromethyl-quinolin-4-ylamino)-phenyl]-acetic acid sodium salt caused significant inhibition (80%) of the PMA-induced ear swelling vs vehicle control. […] When [2-(7-Trifluoromethyl-quinolin-4-ylamino)-phenyl]-acetic acid methyl ester was tested in this assay, the inhibition of ear swelling was not significant (20% inhibition).

COX-1 enzyme = target: T1, COX-1 enzyme (Homo sapiens, UniProt P23219); experiment: COX-1 inhibition in human platelets (PGE2 formation, EIA); type: cell-based
T1 construct: Human platelets are used; endogenous in cells; host or cells: human platelets
T1 sequence (P23219 24-599): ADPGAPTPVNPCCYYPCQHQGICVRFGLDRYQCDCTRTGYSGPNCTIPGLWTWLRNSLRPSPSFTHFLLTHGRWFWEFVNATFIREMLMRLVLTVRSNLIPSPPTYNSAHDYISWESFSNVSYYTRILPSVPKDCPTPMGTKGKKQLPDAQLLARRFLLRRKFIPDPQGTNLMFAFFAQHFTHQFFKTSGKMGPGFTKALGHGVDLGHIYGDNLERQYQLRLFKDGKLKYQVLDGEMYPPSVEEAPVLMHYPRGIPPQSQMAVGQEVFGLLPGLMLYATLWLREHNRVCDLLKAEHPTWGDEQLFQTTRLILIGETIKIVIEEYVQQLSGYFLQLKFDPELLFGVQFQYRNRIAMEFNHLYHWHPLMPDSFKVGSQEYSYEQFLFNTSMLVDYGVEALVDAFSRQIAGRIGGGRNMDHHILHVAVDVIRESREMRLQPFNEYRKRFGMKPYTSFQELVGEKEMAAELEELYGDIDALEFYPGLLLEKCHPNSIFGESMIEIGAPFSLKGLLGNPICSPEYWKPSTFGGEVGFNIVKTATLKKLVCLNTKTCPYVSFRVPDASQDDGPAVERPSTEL
Experimental: Compounds can be tested for their ability to inhibit the COX-1 enzyme by the following procedure: Human platelets are used. Test compound and/or vehicle is incubated with cells (5×10^7/ml) in modified HEPES buffer pH 7.4 for 15 minutes at 37° C. The reaction is initiated by addition of 100 μM arachidonic acid for another 15 minute incubation period and terminated by further addition of 1 N HCl. An aliquot is removed and the amount of PGE 2 formed is determined spectrophotometrically by enzyme immunoassay (“EIA”) kit.
[2-(7-Trifluoromethyl-quinolin-4-ylamino)-phenyl]-acetic acid hydrochloride was screened at 6 concentrations to test for inhibition of the enzyme: 0.1 μM, 0.3 μM, 1 μM, 3 μM, 10 μM and 30 μM. [2-(7-Trifluoromethyl-quinolin-4-ylamino)-phenyl]-acetic acid hydrochloride inhibited the COX-1 enzyme with an IC50 of <0.1 μM in this assay.

[1] = target: T2, Human recombinant Cyclooxygenase-2 (Homo sapiens, UniProt P35354); experiment: COX-2 inhibition, human recombinant enzyme (PGE2 formation, EIA); type: biochemical; conditions: human recombinant COX-2 expressed in Sf21 cells; 7 concentrations 0.01-10 μM; 0.3 μM arachidonic acid
T2 construct: purchased Sigma C-0858; host or cells: Sf21 cells
T2 sequence (P35354 18-604): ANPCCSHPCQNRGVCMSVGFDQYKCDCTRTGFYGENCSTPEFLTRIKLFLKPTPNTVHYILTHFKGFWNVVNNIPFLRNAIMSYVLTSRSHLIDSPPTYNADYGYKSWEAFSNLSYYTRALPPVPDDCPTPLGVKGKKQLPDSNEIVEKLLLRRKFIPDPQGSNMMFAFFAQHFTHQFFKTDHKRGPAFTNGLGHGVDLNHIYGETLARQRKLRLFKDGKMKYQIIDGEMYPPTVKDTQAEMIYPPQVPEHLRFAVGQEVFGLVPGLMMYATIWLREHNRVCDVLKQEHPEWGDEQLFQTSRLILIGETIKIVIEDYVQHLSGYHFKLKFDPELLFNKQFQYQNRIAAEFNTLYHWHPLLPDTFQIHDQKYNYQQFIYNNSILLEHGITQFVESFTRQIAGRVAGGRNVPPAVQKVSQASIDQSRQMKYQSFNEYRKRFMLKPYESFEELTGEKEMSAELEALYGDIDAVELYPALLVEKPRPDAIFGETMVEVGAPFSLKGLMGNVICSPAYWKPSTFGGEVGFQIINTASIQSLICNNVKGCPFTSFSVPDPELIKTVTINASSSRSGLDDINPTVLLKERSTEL
Experimental: Compounds can be tested for their ability to inhibit the COX-2 enzyme by the following procedure: Human recombinant Cyclooxygenase-2 expressed in Sf21 cells (Sigma, C-0858) is used. Test compound and/or vehicle is preincubated with 0.11 U cyclooxygenase-2, 1 mM reduced GSH, 500 μM phenol and 1 μM hematin for 15 minutes at 37° C. in Tris-HCl buffer pH 7.7. The reaction is initiated by addition of 0.3 μM arachidonic acid and terminated after 5 minutes by further addition of 1 N HCl. Following centrifugation, substrate conversion to PGE 2 is measured by an Amersham EIA kit.
[2-(7-Trifluoromethyl-quinolin-4-ylamino)-phenyl]-acetic acid hydrochloride was screened at 7 concentrations to test for inhibition of the enzyme: 0.01 uM, 0.03 μM, 0.1 μM, 0.3 μM, 1 μM, 3 μM and 10 μM.

melting point [°C]	IC50 (COX-1 enzyme; screened at 6 concentrations 0.1-30 μM, 100 μM arachidonic acid) [nM]	IC50 (COX-1 enzyme; tested separately at 3 concentrations (0.01, 0.03 and 0.1 μM)) [nM]	IC50 [1] [nM]	SMILES	inhibition of PMA-induced ear swelling vs vehicle control (PMA-induced ear swelling) [%]
113 to 116	–	–	–	Cl.O=C(O)Cc1ccccc1Nc1ccnc2cc(Cl)ccc12	–
–	–	–	–	COc1ccc2c(c1)c(CC(=O)O)c(C)n2C(=O)c1ccc(Cl)cc1 [Indomethacin, reference compound]	77
103 to 104	< 100	81	61	Cl.O=C(O)Cc1ccccc1Nc1ccnc2cc(C(F)(F)F)ccc12 [[2-(7-Trifluoromethyl-quinolin-4-ylamino)-phenyl]-acetic acid hydrochloride]	75
–	–	–	–	COC(=O)Cc1ccccc1Nc1ccnc2cc(C(F)(F)F)ccc12 [[2-(7-Trifluoromethyl-quinolin-4-ylamino)-phenyl]-acetic acid methyl ester]	20
–	–	–	–	O=C([O-])Cc1ccccc1Nc1ccnc2cc(C(F)(F)F)ccc12.[Na+] [[2-(7-Trifluoromethyl-quinolin-4-ylamino)-phenyl]-acetic acid sodium salt]	80
